Each structure is given as a SMILES string. Bounds are passed on as bounds.

The test system of one experiment is HeLa. Kind of experiment: Cytotoxicity against human HeLa cells by MTT assay. Format: functional, cell-based.
The test system of another experiment is MCF7. Kind of experiment: Cytotoxicity against human MCF7 cells by MTT assay. Format: functional, cell-based. In general terms: Tetrazolium dyes change colour on reduction, which living cells bring about.

For `COc1ccc(/C=C\c2cc(OC)c(OC)c(OC)c2)cc1OP(=O)(O)O` [FOSBRETABULIN DISODIUM], the IC50 (commonly the concentration that gives 50% inhibition) was found to be 0.43 nM with HeLa (Homo sapiens, HeLa) and 2 nM with MCF7 (Homo sapiens, MCF7).
In the case of `COCOc1cc(C#Cc2cc(OC)c(OC)c(OC)c2)ccc1OC`, the half-inhibitory concentration (IC50) in the experiment with HeLa (Homo sapiens, HeLa) amounted to 26800 nM; with MCF7 (Homo sapiens, MCF7), 25600 nM.
The matching figures for `COc1ccc(/C=C\c2cc(OC)c(OC)c(OC)c2)cc1N`: 0.53 nM and 3.5 nM.
The matching figures for `COc1ccc(C#Cc2cc(OC)c(OC)c(OC)c2)cc1NC(=O)OC(C)(C)C`: more than 30000 nM and more than 30000 nM.
For the compound `COc1ccc(C2CC2c2cc(OC)c(OC)c(OC)c2)cc1OP(=O)(O)O` (stereo not given), the half-maximal inhibitory concentration (IC50) is 370 nM with HeLa (Homo sapiens, HeLa) and 297 nM with MCF7 (Homo sapiens, MCF7).
Take `COc1ccc(/C=C\c2cc(OC)c(OC)c(OC)c2)cc1OP(=O)(OCc1ccccc1)OCc1ccccc1`: the half-inhibitory concentration (IC50) worked out at 246 nM in the experiment on HeLa (Homo sapiens, HeLa) and 1170 nM in the experiment on MCF7 (Homo sapiens, MCF7).
Consider `COc1ccc(C2CC2c2cc(OC)c(OC)c(OC)c2)cc1OP(=O)(OCc1ccccc1)OCc1ccccc1` (stereo not given), for which the IC50 with HeLa (Homo sapiens, HeLa) worked out at 10200 nM; with MCF7 (Homo sapiens, MCF7), 10800 nM.
The matching figures for `COc1ccc(/C=C\c2cc(OC)c(OC)c(OC)c2)cc1O` [COMBRETASTATIN A4]: 0.51 nM and 2.4 nM.
On to `COc1ccc(C2CC2c2cc(OC)c(OC)c(OC)c2)cc1NC(=O)OC(C)(C)C` (stereo not given), for which the IC50 with HeLa (Homo sapiens, HeLa) was found to be 10100 nM; in the experiment on MCF7 (Homo sapiens, MCF7), 11800 nM.
As for `COc1ccc(/C=C\c2cc(OC)c(OC)c(OC)c2)cc1NC(=O)[C@@H](N)CO` [OMBRABULIN], the IC50 with HeLa (hela) came out at 0.72 nM; with MCF7 (mcf7), 3.1 nM.
Consider `COCOc1cc(C2CC2c2cc(OC)c(OC)c(OC)c2)ccc1OC` (stereo not given), for which the IC50 in the experiment with HeLa (Homo sapiens, HeLa) was 24000 nM; in the experiment on MCF7 (Homo sapiens, MCF7) it was 14000 nM.
With `COCOc1cc(/C=C\c2cc(OC)c(OC)c(OC)c2)ccc1OC`, the half-inhibitory concentration (IC50) with HeLa (Homo sapiens, HeLa) came to 197 nM; with MCF7 (Homo sapiens, MCF7), 269 nM.
As to `COc1ccc(/C=C\c2cc(OC)c(OC)c(OC)c2)cc1NC(=O)[C@@H](N)CO`, the half-inhibitory concentration (IC50) in the experiment with HeLa (hela) turned out to be 3.7 nM; in the experiment with MCF7 (mcf7) it was 25 nM.
With `COc1ccc(C2CC2c2cc(OC)c(OC)c(OC)c2)cc1NC(=O)[C@@H](N)CO` (stereo not given in full) [listing 1 of 2 here], the 50% inhibitory concentration (IC50) in the experiment on HeLa (hela) turned out to be 432 nM; with MCF7 (mcf7) it was 670 nM.
`COc1ccc(C#Cc2cc(OC)c(OC)c(OC)c2)cc1N`: the IC50 in the experiment on HeLa (Homo sapiens, HeLa) is more than 30000 nM; in the experiment with MCF7 (Homo sapiens, MCF7), more than 30000 nM.
Regarding `COc1ccc([C@@H]2C[C@@H]2c2cc(OC)c(OC)c(OC)c2)cc1O`, the IC50 in the experiment on HeLa (Homo sapiens, HeLa) was 28 nM; with MCF7 (Homo sapiens, MCF7), 102 nM.
For `COc1ccc(C2CC2c2cc(OC)c(OC)c(OC)c2)cc1NC(=O)[C@@H](N)CO` (stereo not given in full) [listing 2 of 2 here], the figures for the IC50 in the experiment on HeLa (hela) and with MCF7 (mcf7) were 32 nM and 63 nM, respectively.
With `COc1ccc(/C=C\c2cc(OC)c(OC)c(OC)c2)cc1NC(=O)OC(C)(C)C`, the IC50 was 1170 nM with HeLa (Homo sapiens, HeLa) and 3850 nM with MCF7 (Homo sapiens, MCF7).
As for `COc1ccc(C2CC2c2cc(OC)c(OC)c(OC)c2)cc1N` (stereo not given), the IC50 in the experiment with HeLa (Homo sapiens, HeLa) was determined as 41 nM; in the experiment on MCF7 (Homo sapiens, MCF7), 212 nM.
In the case of `COc1ccc(C#Cc2cc(OC)c(OC)c(OC)c2)cc1O`, the IC50 in the experiment on HeLa (Homo sapiens, HeLa) was 1540 nM; in the experiment with MCF7 (Homo sapiens, MCF7), 1640 nM.

For the origin of these results see ChEMBL document CHEMBL1156140, “Synthesis and antitumor-evaluation of cyclopropyl-containing combretastatin analogs” (Bioorg Med Chem Lett, 2009).
